Reference: PubChem BioAssay (NCI)
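Growth conditions: 96-well plates. Treatment: test compound, 48 hours, 5 concentrations. Analysis: linear interpolation between bracketing concentrations; unreached endpoints set to highest concentration. GI50 marks 50% less growth. TGI marks complete inhibition of growth.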

Assays:
Experiment in all cases: NCI tumour cell line growth inhibition, 48 h
786-0 renal = tested on: 786-0 renal
A498 renal = tested on: A498 renal
A549 NSCLC = tested on: A549 NSCLC
ACHN renal = tested on: ACHN renal
BT-549 breast = tested on: BT-549 breast
CAKI-1 renal = tested on: CAKI-1 renal
CCRF-CEM leukemia = tested on: CCRF-CEM leukemia
COLO 205 colon = tested on: COLO 205 colon
DU-145 prostate = tested on: DU-145 prostate
EKVX NSCLC = tested on: EKVX NSCLC
HCC-2998 colon = tested on: HCC-2998 colon
HCT-116 colon = tested on: HCT-116 colon
HCT-15 colon = tested on: HCT-15 colon
HL-60(TB) leukemia = tested on: HL-60(TB) leukemia
HOP-62 NSCLC = tested on: HOP-62 NSCLC
HOP-92 NSCLC = tested on: HOP-92 NSCLC
HS 578T breast = tested on: HS 578T breast
HT29 colon = tested on: HT29 colon
IGROV1 ovarian = tested on: IGROV1 ovarian
K-562 leukemia = tested on: K-562 leukemia
KM12 colon = tested on: KM12 colon
LOX IMVI melanoma = tested on: LOX IMVI melanoma
MALME-3M melanoma = tested on: MALME-3M melanoma
MCF7 breast = tested on: MCF7 breast
MDA-MB-231 breast = tested on: MDA-MB-231 breast
MDA-MB-435 = tested on: MDA-MB-435
MOLT-4 leukemia = tested on: MOLT-4 leukemia
NCI-H226 lung = tested on: NCI-H226 lung
NCI-H23 lung = tested on: NCI-H23 lung
NCI-H460 lung = tested on: NCI-H460 lung
NCI-H522 lung = tested on: NCI-H522 lung
NCI/ADR-RES ovarian = tested on: NCI/ADR-RES ovarian
OVCAR-3 ovarian = tested on: OVCAR-3 ovarian
OVCAR-4 ovarian = tested on: OVCAR-4 ovarian
OVCAR-5 ovarian = tested on: OVCAR-5 ovarian
OVCAR-8 ovarian = tested on: OVCAR-8 ovarian
PC-3 prostate = tested on: PC-3 prostate
RPMI-8226 leukemia = tested on: RPMI-8226 leukemia
RXF 393 renal = tested on: RXF 393 renal
SF-268 CNS = tested on: SF-268 CNS
SF-295 CNS = tested on: SF-295 CNS
SF-539 CNS = tested on: SF-539 CNS
SK-MEL-2 melanoma = tested on: SK-MEL-2 melanoma
SK-MEL-28 melanoma = tested on: SK-MEL-28 melanoma
SK-MEL-5 melanoma = tested on: SK-MEL-5 melanoma
SK-OV-3 ovarian = tested on: SK-OV-3 ovarian
SN12C renal = tested on: SN12C renal
SNB-19 CNS = tested on: SNB-19 CNS
SNB-75 CNS = tested on: SNB-75 CNS
SR leukemia = tested on: SR leukemia
SW-620 colon = tested on: SW-620 colon
T-47D breast = tested on: T-47D breast
TK-10 renal = tested on: TK-10 renal
U251 CNS = tested on: U251 CNS
UACC-257 melanoma = tested on: UACC-257 melanoma
UACC-62 melanoma = tested on: UACC-62 melanoma
UO-31 renal = tested on: UO-31 renal

CCN(CC)c1ccc(/C=N/NC(=O)c2ccc(S(N)(=O)=O)cc2)cc1
GI50 (786-0 renal): 610 nM
TGI (786-0 renal): 4670 nM
GI50 (A498 renal): 4260 nM
TGI (A498 renal): 29300 nM
GI50 (A549 NSCLC): 1780 nM
TGI (A549 NSCLC): > 100000 nM
GI50 (ACHN renal): 605 nM
TGI (ACHN renal): 22300 nM
GI50 (BT-549 breast): 1000 nM
TGI (BT-549 breast): 8290 nM
GI50 (CAKI-1 renal): 488 nM
TGI (CAKI-1 renal): 25800 nM
GI50 (CCRF-CEM leukemia): 178 nM
TGI (CCRF-CEM leukemia): > 100000 nM
GI50 (COLO 205 colon): 437 nM
TGI (COLO 205 colon): 19000 nM
GI50 (DU-145 prostate): 828 nM
TGI (DU-145 prostate): > 58600 nM
GI50 (EKVX NSCLC): 782 nM
TGI (EKVX NSCLC): > 82100 nM
GI50 (HCC-2998 colon): 612 nM
TGI (HCC-2998 colon): 51000 nM
GI50 (HCT-116 colon): 324 nM
TGI (HCT-116 colon): 19200 nM
GI50 (HCT-15 colon): 419 nM
TGI (HCT-15 colon): 44200 nM
GI50 (HL-60(TB) leukemia): 255 nM
TGI (HL-60(TB) leukemia): 4380 nM
GI50 (HOP-62 NSCLC): 338 nM
TGI (HOP-62 NSCLC): 11900 nM
GI50 (HOP-92 NSCLC): 430 nM
TGI (HOP-92 NSCLC): 14600 nM
GI50 (HS 578T breast): 2370 nM
TGI (HS 578T breast): 40800 nM
GI50 (HT29 colon): 614 nM
TGI (HT29 colon): 17300 nM
GI50 (IGROV1 ovarian): 690 nM
TGI (IGROV1 ovarian): > 100000 nM
GI50 (K-562 leukemia): 479 nM
TGI (K-562 leukemia): > 100000 nM
GI50 (KM12 colon): 811 nM
TGI (KM12 colon): > 63300 nM
GI50 (LOX IMVI melanoma): 271 nM
TGI (LOX IMVI melanoma): 4510 nM
GI50 (MALME-3M melanoma): 856 nM
TGI (MALME-3M melanoma): 11300 nM
GI50 (MCF7 breast): 488 nM
TGI (MCF7 breast): > 100000 nM
GI50 (MDA-MB-231 breast): 525 nM
TGI (MDA-MB-231 breast): 64300 nM
GI50 (MDA-MB-435): 975 nM
TGI (MDA-MB-435): > 100000 nM
GI50 (MOLT-4 leukemia): 373 nM
TGI (MOLT-4 leukemia): 15000 nM
GI50 (NCI-H226 lung): 1390 nM
TGI (NCI-H226 lung): 23900 nM
GI50 (NCI-H23 lung): 2110 nM
TGI (NCI-H23 lung): > 100000 nM
GI50 (NCI-H460 lung): 510 nM
TGI (NCI-H460 lung): 10400 nM
GI50 (NCI-H522 lung): 403 nM
TGI (NCI-H522 lung): 23200 nM
GI50 (NCI/ADR-RES ovarian): 3110 nM
TGI (NCI/ADR-RES ovarian): > 100000 nM
GI50 (OVCAR-3 ovarian): 244 nM
TGI (OVCAR-3 ovarian): > 100000 nM
GI50 (OVCAR-4 ovarian): 397 nM
TGI (OVCAR-4 ovarian): > 77600 nM
GI50 (OVCAR-5 ovarian): 2580 nM
TGI (OVCAR-5 ovarian): > 100000 nM
GI50 (OVCAR-8 ovarian): 406 nM
TGI (OVCAR-8 ovarian): > 52600 nM
GI50 (PC-3 prostate): 469 nM
TGI (PC-3 prostate): 73400 nM
GI50 (RPMI-8226 leukemia): 2840 nM
TGI (RPMI-8226 leukemia): 13700 nM
GI50 (RXF 393 renal): 1100 nM
TGI (RXF 393 renal): 3800 nM
GI50 (SF-268 CNS): 328 nM
TGI (SF-268 CNS): 25800 nM
GI50 (SF-295 CNS): 739 nM
TGI (SF-295 CNS): 18300 nM
GI50 (SF-539 CNS): 488 nM
TGI (SF-539 CNS): 8110 nM
GI50 (SK-MEL-2 melanoma): 3170 nM
TGI (SK-MEL-2 melanoma): 20700 nM
GI50 (SK-MEL-28 melanoma): 495 nM
TGI (SK-MEL-28 melanoma): > 67400 nM
GI50 (SK-MEL-5 melanoma): 1420 nM
TGI (SK-MEL-5 melanoma): > 100000 nM
GI50 (SK-OV-3 ovarian): 533 nM
TGI (SK-OV-3 ovarian): 21400 nM
GI50 (SN12C renal): 957 nM
TGI (SN12C renal): > 100000 nM
GI50 (SNB-19 CNS): 1120 nM
TGI (SNB-19 CNS): > 64800 nM
GI50 (SNB-75 CNS): 496 nM
TGI (SNB-75 CNS): 5910 nM
GI50 (SR leukemia): 83.9 nM
TGI (SR leukemia): 3070 nM
GI50 (SW-620 colon): 597 nM
TGI (SW-620 colon): > 100000 nM
GI50 (T-47D breast): 686 nM
TGI (T-47D breast): > 72300 nM
GI50 (TK-10 renal): 1760 nM
TGI (TK-10 renal): 47800 nM
GI50 (U251 CNS): 268 nM
TGI (U251 CNS): 18700 nM
GI50 (UACC-257 melanoma): 869 nM
TGI (UACC-257 melanoma): 7900 nM
GI50 (UACC-62 melanoma): 499 nM
TGI (UACC-62 melanoma): 8780 nM
GI50 (UO-31 renal): 487 nM
TGI (UO-31 renal): 24000 nM
